Assay results: patent US20220010300A1, “METHODS OF TREATING NEURODEGENERATIVE DISORDERS AND IDENTIFYING TARGETS THEREFORE” (The Board of Trustees of the Leland Stanford Junior …, priority 2019, published 2022)

Assays:
[1] = system: BV-2 cells; assay: In vitro phagocytosis assay (pHrodo red Zymosan uptake); type: cell-based, mouse
Experimental: (§1) To induce lipid droplet formation, subconfluent BV-2 cells were treated for 18 hours with 5 μg/ml LPS (Lipopolysaccharide from E. coli, Sigma) in DMEM+5% FBS. Controls received vehicle solution (PBS) only. To inhibit lipid droplet formation, BV-2 cells were pre-treated with 1 μM Triacsin C (Cayman Chemical) or vehicle (saline) in DMEM+5% FBS. 30 min after adding Triacsin C, LPS or LPS-vehicle solution were added and cells were co-treated with Triacsin C and LPS for 18 hours.
For in vitro phagocytosis assays, BV-2 cells were split into 96 well plates at 1000 cells per well in DMEM+5% FBS and treated with LPS, Triacsin C and vehicle solutions for 18 hours. Following specific treatments, 5 ng pHRodo Red Zymosan™ Bioparticles (Thermo Fisher Scientific P35364) in 100 μl DMEM+5% FBS were added per well. Four phase contrast and red fluorescent images per well were acquired every 2 hours for 16 hours using the Incucyte S3 live cell analysis system (Essen Bioscience). For each time point, phagocytosis was calculated by normalizing red fluorescent area to phase confluence.

[2] = system: BV-2 cells; assay: BODIPY in vitro staining of BV-2 cells (confocal counting of BODIPY+ cells); type: cell-based, mouse
Experimental: as §1
BV-2 cells were seeded at 5×10^4 cells on poly-L-lysine coated glass coverslips in DMEM+5% FBS. Following specific treatments, cells were fixed in 4% PFA for 30 min, washed 3× in PBS and incubated in PBS with BODIPY™ 493/503 (1:1000 from 1 mg/ml stock solution in DMSO; ThermoFisher) and Hoechst 33342 (1:2000, ThermoFisher) for 10 min at RT. Sections were washed twice in PBS and mounted on microscope slides with Vectashield (H-1000, Vector Laboratories). Four randomly selected visual fields per coverslip were photographed (40× magnification) using a confocal scanning laser microscope (LSM 700, Zeiss) with LSM software (ZEN 2011). To analyze the percentage of lipid droplet-containing BV-2 cells, numbers of total Hoechst^+ cells and of Hoechst^+ cells with BODIPY^+ lipid droplets were counted and the percentage of BODIPY^+BV-2 cells was calculated.

[3] = system: BV-2 cells; assay: ROS assay (CellROX fluorescence, microscopy and flow cytometry); type: cell-based, mouse
Experimental: To measure ROS in BV-2 cells, cells were split into 24 well plates at 5×10^4 cells per well in DMEM+5% FBS and treated with LPS, Triacsin C and vehicle solutions for 18 hours. Next, cells were incubated in DMEM+5% FBS with CellROX™ Orange (1:500, Invitrogen) for 30 min at 37° C., washed twice in PBS, and CellROX™ Orange Intensity was examined by fluorescence microscopy (Keyence Corp., Osaka, Japan). Following microscopic analysis, cells were detached using TripLE, transferred to FACS tubes and CellROX™ Orange intensity was analyzed on BD AccuriC6 flow cytometer.

[4] = system: BV-2 cells; assay: BODIPY fluorescence of BV-2 cells by flow cytometry; type: cell-based, mouse
Experimental: as §1

[5] = system: microglia in the hippocampus; assay: LPS injections in young mice, BODIPY/Iba1 staining of the hippocampus; type: in vivo, mouse; details: 3-month-old mice, i.p. 1 mg LPS/kg BW once daily for four days, compared with vehicle treated controls
Experimental: 3-month-old wild type mice were injected with LPS (Lipopolysaccharide from E. coli, Sigma), i.p. 1 mg LPS/kg body weight once daily for four consecutive days. Control mice were injected with body weight corresponding volumes of PBS. 24 hours after the last LPS injection mice were euthanized, brains were extracted and brain tissue was processed for immunohistochemistry staining (see Perfusion and tissue processing and Immunohistochemistry and BODIPY staining).
Mice were anesthetized using Avertin (Tribromoethanol) and transcardially perfused with 0.9% NaCl solution. Brains were extracted, fixed in 4% paraformaldehyde for 48 hours, cryoprotected in 30% sucrose and then sectioned sagitally or coronally ([…]) using a freezing microtome (Leica). […]
For quantification of BODIPY^+ microglia, of CD68^hi microglia, of BODIPY^+ lipid droplet numbers and of lipid droplet size, analyses were performed blinded on coded slides. […]
To analyze the percentage of lipid droplet-containing microglia, numbers of total TMEM119^+ or lba1^+ cells and of TMEM119+BODIPY^+ or lba1+BODIPY^+ cells were counted and the percentage of BODIPY^+ microglia was calculated. To assess the percentage of CD68^hi cells, BODIPY^−lba1^+ and BODIPY^+lba1^+ cells with clearly visible CD68 immunoreactive particles were counted and normalized to total BODIPY^−lba1^+ and BODIPY^+lba1^+ cells.

[6] = system: hippocampal LD-low and LD-high microglia; assay: Cytokine assay on acutely isolated primary microglia (multiplex array); type: cell-based, mouse; details: aged mice, 100 ng/ml LPS for 8 hours; IL-10, CCL3, CCL4, IL-6, CCL5, TNF-α, IL-1β, IL-1α, CXCL1, CXCL10
Experimental: Primary microglia from hippocampi of 3-month (young) and 20-month-old (aged) wild type mice were isolated as described above (see Microglia Isolation, hippocampi from 3 mice were pooled per age group). CD11b^+CD45^lo primary microglia from young mice, and CD11b^+CD45^lo primary microglia sorted for BODIPY^lo and BODIPY^hi cells from aged mice were sorted into 5% FBS-containing microglial culture medium (DMEM/F12, 1% Pen/Strep; 2 mM glutamine; 5 ug/mL N-acetyl cysteine; 5 ug/mL insulin; 100 ug/mL apo-transferrin; 100 ng/mL sodium selenite; 2 ng/mL human TGF-2; 100 ng/mL murine IL-34; 1.5 ug/mL ovine wool cholesterol; 10 ug/mL heparin sulfate)s. Cells were seeded into 96 well plates at 5000 cells per well in 100 μl microglia culture medium with 5% FBS and incubated for 30 min in the incubator (37° C., 5% CO2). Next, cells were treated with 100 ng/ml LPS or PBS for 8 hours, and supernatant was collected and secreted signaling proteins were measured in culture supernatants using the ‘Mouse Cytokine/Chemokine Array 31-Plex’ from Eve Technologies (Canada).

[7] = system: BV-2 cells; assay: Iodo-BODIPY irradiation assay with Calcein AM live cell staining; type: cell-based, mouse; details: LPS 5 μg/ml for 18 hours, 3.8 μM iodo-BODIPY for 30 min, green LED irradiation for 3 hours
Experimental: BV-2 cells were treated for 18 hours with 5 μg/ml LPS in DMEM with 5% FBS to induce lipid droplet formation. Controls received vehicle solution (PBS) only. Cells were washed twice in PBS and incubated in 3.8 μM iodo-BODIPY (see FIG. 8, Panel A; iodo-BODIPY was kindly provided by Prof. Carolyn Bertozzi, Chemistry department, Stanford University) in PBS for 30 min in the incubator (5% CO2, 37° C.). Cells were washed twice in PBS and then irradiated under visible light (green LED; 9 W, 150 mA, 2000 lux) for 3 hours at RT. Non-irradiated cells were kept at RT for 3 hours without irradiation.
To assess cell viability after photoirradiation, irradiated and non-irradiated BV-2 cells were stained with 1 μM Calcein AM (Invitrogen) in PBS for 15 min at 37° C. Cells were then examined by fluorescence microscopy (Keyence Corp., Osaka, Japan) and the percentage of green, Calcein^+BV-2 cells (live cells) of total methyl-di-iodo BODIPY^+ cells (red, lipid droplet containing cells) was calculated.

[8] = 1 μM Triacsin C co-treated with LPS (5 μg/ml) for 18 hours

Compound: CCC/C=C/C/C=C/C=C/C=N/NN=O [Triacsin C]
- pHrodo red Zymosan phagocytosis in LPS-treated cells [1, 8]: increased Zymosan phagocytosis
- effect on LPS-induced increase in BODIPY+ cells [2, 8]: abolished the LPS-induced increase
- ROS levels (CellROX fluorescence) in LPS-treated cells [3, 8]: significantly reduce ROS levels
- effect on BODIPY+ signal in LPS-stimulated BV-2 cells by flow cytometry [4, 8]: inhibited an increase

Compound: Lipopolysaccharide from E. coli [LPS]
- phagocytosis (pHrodo red Zymosan uptake) in BV-2 cells ([1]; 5 μg/ml LPS for 18 hours): significantly increased phagocytosis
- increase of lipid droplet containing BODIPY+ BV-2 cells ([2]; 5 μg/ml LPS for 18 hours, compared with control BV-2 cells): 5 fold
- increase in lipid droplet containing microglia (BODIPY+Iba1+) in the hippocampus [5]: twofold increase
- ROS generation (CellROX fluorescence) in BV-2 cells ([3]; 5 μg/ml LPS for 18 hours): induced elevated ROS generation
- cytokine release of LD-high microglia compared to LD-low microglia upon LPS treatment [6]: strongly exaggerated release of multiple cytokines
- BODIPY+ fluorescence by flow cytometry ([4]; 5 μg/ml LPS for 18 hours): significantly increased

Compound: iodo-BODIPY [iBP]
- cell killing after photoirradiation of iBP+ BV-2 cells (Calcein live cell imaging) [7]: selectively killed lipid-droplet rich cells
